Assay results published in patent US6177592A, “Compounds” (priority 1997, dated 2001).
“Also recorded” adds a separate entry of the source.

What was measured:
[1] = test system: Sarcoma-180; assay: Sarcoma-180/ICR mice macrobiotic effect; type: in vivo
[2] = test system: HL-60 cells; assay: Apoptosis in HL-60 cells (apoptic bodies, DNA fragmentation); type: cell-based, human; conditions: for apoptic bodies in the cells: at each of the cell-growth-inhibiting concentrations
Experimental: (§1) (1) Each 0.5 ml of 0.2 mM CM, 0.8 mM CM or 1.6 mM CM was added to 4.5 ml of RPMI 1640 medium containing 10% of fetal calf serum and 2.5×10^5HL-60 cells (promyelocytic leukemia cell) (ATCC CCL-240) and incubated at 37° C. for 24 hours or 48 hours in the presence of 5% carbon dioxide gas and the numbers of viable cells were measured.
(§2) (2) To each of the wells of a 96-well microtiter plate was added 8, 40, 200 or 1000 μM aqueous solution of GM or 10 μl of water as a control. HL-60 (ATCC CCL-240) was suspended in an RPMI 1640 medium containing 10% of fetal calf serum to make the concentration 5×10^4 cells/ml and each 90 μl thereof was placed in each well of the above-mentioned microtiter plate and incubated at 37° C. for 48 hours in the presence of 5% carbon dioxide. Incubation was conducted for four hours more after addition of 10 μl of a solution (5 mg/ml) of 3-(4,5-dimethylthiazol-2-yl)-2,5-diphenyltetrzolium bromide (MTT; manufactured by Sigma) in a phosphate-buffered saline solution and the state of growth of the cells was observed under a microscope. Further, 100 μl of 2-propanol containing 0.04N hydrochloric acid was added followed by stirring and an absorbance at 590 nm was measured.
(§3) (4) HL-60 cells (ATCC CCL240) which were incubated at 37° C. in an RPMI 1640 medium (manufactured by Nissui) containing 10% of fetal calf serum (manufactured by Gibco) treated at 56° C. for 30 minutes were suspended in the above medium to make the concentration 2.5×10^5cells/4.5 ml. To this suspension was added 0.5 ml of 100 μM aqueous solution of GM (final concentration: 10 μM) followed by incubating at 37° C. in the presence of 5% carbon dioxide gas for 24 hours, 48 hours and 72 hours.
(§4) (5) To each well of the 96-well microtiter plate was added 4.12, 12.3, 37.0, 111, 333 or 1000 μM aqueous solution of GD or 10 μl of water as a control. HL-60 (ATCC CCL-240) was suspended in an RPMI 1640 medium containing 10% of fetal calf serum to make the concentration 5×10^4 cells/ml and each 90 μl thereof was placed in each well of the above-mentioned microtiter plate followed by incubating at 37° C. for 48 hours in the presence of 5% carbon dioxide gas. The incubation was conducted for four hours more after addition of 10 μl of 5 mg/ml solution of 3-(4,5-dimethylthiazol-2-yl)-2,5-diphenyltetrazolium bromide (MTT; manufactured by Sigma) in a phosphate-buffered saline solution and the state of growth of the cells was observed under a microscope. In the meanwhile, 100 μl of 2-propanol containing 0.04N HCl was added followed by well stirring and the absorbance at 590 nm was measured.

[3] = test system: HL-60 cells; assay: MTT growth inhibition of HL-60; type: cell-based, human; conditions: Homo sapiens, HL-60, 48 hours; for activity at 10 µM / activity at 20 µM / activity at 40 µM: read-out: degree of cell growth (ratio of absorbance at 590 nm of sample-added section to control)
Experimental: as §2
(3) To each well of the 96-well microtiter plate was added 100, 200 or 400 μM aqueous solution of GM or CM or 10 μl of water as a control and the inhibition activity of growth of HL-60 was measured by the same method as mentioned in Example 5-(2). The degree of cell growth was, however, expressed in terms of the ratio (%) of the absorbance at 590 nm of the sample-added section to that of the water-added section (the control).
as §4
(6) Cyclopentenone and L-cysteine hydrochloride were dissolved in a phosphate buffered saline solution (pH 7.2) to make their concentrations 55 mM and 80 mM, respectively and made to react at 37° C. for 15 minutes at pH 7.2. Apart of the reaction solution was analyzed by a reversed phase HPLC using a column of TSK gel ODS-80Ts (4.6 mm×250 mm; manufactured by Tosoh)at the flow rate of 1 ml/minute using 0.1% aqueous solution of trifluoroacetic acid as a mobile phase whereupon no cyclopentenone was detected. This reaction solution was a solution containing 55 mM of CD.
Degree of cell growth was, however, expressed in terms of the ratio (%) of the absorbance at 590 nm of the section to which the sample was added to that of the control where water was added.

[4] = test system: Bacillus subtilis IFO 3021; assay: Antibacterial activity, viable cell numbers; type: cell-based
Experimental: Bacillus subtilis IFO 3021 was incubated (by mans of a seed culture) overnight in a sensitive bouillon medium (manufactured by Nissui). Absorbance at 600 nm was measured and viable cell numbers were calculated from the previously-prepared calibration curve showing the relation between the viable cell numbers and absorbance at 600 nm. The seed-cultured liquid was diluted with a fresh sensitive bouillon medium to make the concentration 1×10^6 cells/ml and each 180 μl thereof was placed in each well of the 96-well microtiter plate. Each 20 μl of aqueous solution of GM (4 mg/ml or 2 mg/ml) or water was added to each well followed by allowing to a stationary culture at 37° C. for one night (main incubation) In the meanwhile, a part of the seed culture liquid was diluted with sterilized water, spread onto a sensitive bouillon agar plate medium and incubated at 37° C. for one night and the colonies were counted to measure the precise viable cell numbers.
The cultured liquid in each of the wells was diluted with sterilized water, spread onto a sensitive bouillon agar plate medium and incubated at 37° C. for one night and the colonies were counter to measure the viable cell numbers.

[5] = test system: HL-60 cells (promyelocytic leukemia cell); assay: Viable cell numbers of HL-60 (growth inhibition of cancer cells); type: cell-based, human
Experimental: as §1
In FIG. 28, open square (.quadrature.) indicates the case where CM is added followed by culturing for 24 hours; black square (.box-solid.) indicates the case where CM is added followed by culturing for 48 hours; open triangle (Δ) indicates the case where no sample was added followed by culturing for 24 hours; and black triangle (.tangle-solidup.) indicates the case where no sample was added followed by culturing for 48 hours.
as §3, with “hours. […]” for “hours.”

| Structure (SMILES) | macrobiotic effect [1] | apoptic bodies in the cells [2] | activity at 10 µM [3] | activity at 20 µM [3] | activity at 40 µM [3] | antibacterial activity (in words) ([4]; compared with GM) | inhibition activity of the growth of cancer cells ([5]; 0.5 ml of 0.2, 0.8 or 1.6 mM CM added to 4.5 ml, 24 or 48 hours) | fragmentation of DNA into a chromatin unit ([2]; 10 μM GM, agarose gel electrophoresis) | IC100 ([3]; MTT, final concentration, read-out: concentration at which growth of HL-60 cells was completely inhibited) | viable cell numbers ([4]; 400 μg/ml final, one night at 37° C., water 1.3×10^8) | viable cell numbers and viability of cells ([5]; 10 μM GM, 24, 48 and 72 hours, vs water control) |
| --- | --- | --- | --- | --- | --- | --- | --- | --- | --- | --- | --- |
| N[C@@H](CSC1C=C(O)C(=O)C1)C(=O)O (stereo partly shown) [CM] | same macrobiotic effect | apoptic bodies were detected | 48.9% | 16.1% | 2.8% | same results | intensive inhibition activity of the growth of cancer cells | – | – | – | – |
| N[C@@H](CCC(=O)N[C@@H](CSC1C=C(O)C(=O)C1)C(=O)NCC(=O)O)C(=O)O (stereo partly shown) [GM, 2-hydroxy-4-glutathion-S-yl-2-cyclopenten-1-one] | same macrobiotic effect | apoptic bodies were formed in the cells; also recorded: aggregation of nuclei, reduction in size of the cells and production of apoptic bodies were detected | 14.8% | 1.8% | 3.2% | – | – | fragmentation of DNA into a chromatin unit was observed | 4 µM | 4.4×10^7 cells/ml | significantly reduced |
